Patent US5914339A, “Substituted 1,3-benzodioxoles” (American Home Products Corporation, priority 1997, dated 1999)
Where a name gives a salt, the structure may show the parent alone.

The compounds below were run against human β2 adrenergic receptor (Homo sapiens, UniProt P07550) (assay: cell-based). Conditions: 10 min; compounds tested at 10 nM, isoproterenol at 10 μM; CHO cells, 10 min at 37° C; read-out: β2: % of isoproterenol activity (increase in cAMP).
Protocol: The activity of the test compounds on human β-adrenergic receptors was determined with Chinese hamster ovary (CHO) cells transfected with human β2, or β1 adrenergic receptors. Agonist activity is indicated by increased cAMP levels in the CHO cells. Selectivity of the test compounds for the β3 receptor was assessed by comparison with results in β2 and β1 adrenergic receptor transfected cells.
1). Chinese hamster ovary (CHO) cells transfected with human β2, or β1 adrenergic receptors were used in the assay.
2). Cells were grown to confluent conditions in 24 well plates.
3). Drugs were dissolved in DMSO at a concentration of 10 μM.
4). Cells were incubated with drug at 10 nM concentration for 10 min at 37° C.
5). Cell cAMP concentrations were assayed using a scintillation proximity assay kit from Amersham Corp., Chicago, Ill.
6). Activities for the test compounds are expressed as a percentage of the isoproterenol response.
Production of the CHO cells transfected with human β2, or β1 adrenergic receptors, and compound test procedures utilizing the CHO cells, are described by Emorine et al. in their article "Molecular Characterization of the Human Beta3 -Adrenergic Receptor", Science 1989, 245(8), 1118-1121 and by Muzzin et al. in the article "An Adipose Tissue-Specific Beta3 -Adrenergic Receptor", J. Biol. Chem.1991, 266, 24053-24058.
^a Human β receptors expressed in Chinese hamster ovary cells,
compounds tested at 10 nM, results expressed as % of isoproterenol
activity (increase in cAMP) at 10 μM. EC50 (μM) values
determined for selected compounds.

Sequence of human β2 adrenergic receptor (P07550 whole entry): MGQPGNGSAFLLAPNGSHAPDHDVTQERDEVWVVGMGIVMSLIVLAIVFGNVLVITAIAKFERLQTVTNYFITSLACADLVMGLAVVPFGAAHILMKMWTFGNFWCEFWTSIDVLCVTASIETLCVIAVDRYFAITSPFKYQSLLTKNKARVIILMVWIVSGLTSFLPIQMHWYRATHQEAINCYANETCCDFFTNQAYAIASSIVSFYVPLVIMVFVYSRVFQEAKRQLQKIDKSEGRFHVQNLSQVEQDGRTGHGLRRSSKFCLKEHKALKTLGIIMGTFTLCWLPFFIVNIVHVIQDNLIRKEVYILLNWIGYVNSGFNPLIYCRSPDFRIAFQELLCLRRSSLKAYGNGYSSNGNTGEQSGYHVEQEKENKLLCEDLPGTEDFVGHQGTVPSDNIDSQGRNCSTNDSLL

| activation at 0.01 µM | SMILES |
| --- | --- |
| 1% | CCCCCCCCOC(=O)C1(C(=O)OCCCCCCCC)Oc2ccc(CC(C)NCC(O)c3cccc(Cl)c3)cc2O1 (stereo not shown) [Example 12, 5-{2-[2-(3-Chloro-phenyl)-2-hydroxy-ethylamino]-propyl}-benzo[1,3]dioxole-2,2-dicarboxylic acid dioctyl ester] |
| 2% | CCOC(=O)COC(=O)C1(C(=O)OCC(=O)OCC)Oc2ccc(CC(C)NCC(O)c3cccc(Cl)c3)cc2O1 (stereo not shown) [Example 28, 5-{2-[2-(3-Chloro-phenyl)-2-hydroxy-ethylamino]-propyl}-benzo[1,3]dioxole-2,2-dicarboxylic acid bis-ethoxycarbonylmethyl ester] |
| 5% | C[C@H](Cc1ccc2c(c1)OC(C(=O)OCC13CC4CC(CC(C4)C1)C3)(C(=O)OCC13CC4CC(CC(C4)C1)C3)O2)NC[C@H](O)c1cccc(Cl)c1 (stereo partly drawn) [Example 77, 5-{(2R)-2-[(2R)-2-(3-Chloro-phenyl)-2-hydroxy-ethylamino]-propyl}-benzo[1,3]dioxole-2,2-dicarboxylic acid bis-adamantan-1-ylmethyl ester] |
| 4% | CC(C)CCCOC(=O)C1(C(=O)OCCCC(C)C)Oc2ccc(CC(C)NCC(O)c3cccc(Cl)c3)cc2O1 (stereo not shown) [Example 35, 5-{2-[2-(3-Chloro-phenyl)-2-hydroxy-ethylamino]-propyl}-benzo[1,3]dioxole-2,2-dicarboxylic acid bis-(4-methyl-pentyl) ester] |
| 7% | CC(Cc1ccc2c(c1)OC(C(=O)OC(C)OC(=O)CC(C)(C)C)(C(=O)OC(C)OC(=O)CC(C)(C)C)O2)NCC(O)c1cccc(Cl)c1 (stereo not shown) [Example 54] |
| 0% | CC(Cc1ccc2c(c1)OC(C(=O)OCCCl)(C(=O)OCCCl)O2)NCC(O)c1cccc(Cl)c1 (stereo not shown) [Example 73, 5-{2-[2-(3-Chloro-phenyl)-2-hydroxy-ethylamino]-propyl}-benzo[1,3]dioxole-2,2-dicarboxylic acid bis 2-(Chloro)ethyl ester] |
| 16% | C[C@H](Cc1ccc2c(c1)OC(C(=O)OCC=Cc1ccccc1)(C(=O)OCC=Cc1ccccc1)O2)NC[C@H](O)c1cccc(Cl)c1 (stereo partly drawn) [Example 99, 5-{(2R)-2-[(2R)-2-(3-Chloro-phenyl)-2-hydroxy-ethylamino]-propyl}-benzo[1,3]dioxole-2,2-dicarboxylic acid bis-(3-phenyl-allyl)ester] |
| 0% | CCC(CC)COC(=O)C1(C(=O)OCC(CC)CC)Oc2ccc(C[C@@H](C)NC[C@H](O)c3cccc(Cl)c3)cc2O1 [Example 74, 5-{(2R)-2-[(2R)-2-(3-Chloro-phenyl)-2-hydroxy-ethylamino]-propyl}-benzo[1,3]dioxole-2,2-dicarboxylic acid bis-(2-ethylbutyl) ester] |
| 3% | C[C@H](Cc1ccc2c(c1)OC(C(=O)OC/C=C\COCc1ccccc1)(C(=O)OC/C=C\COCc1ccccc1)O2)NC[C@H](O)c1cccc(Cl)c1 [Example 101, 5-{(2R)-2-[(2R)-2-(3-Chloro-phenyl)-2-hydroxy-ethylamino]-propyl}-benzo[1,3]dioxole-2,2-dicarboxylic acid bis-(4-benzyloxy-but-2-enyl)ester] |
| 7% | C=CCOC(=O)C1(C(=O)OCC=C)Oc2ccc(C[C@@H](C)NC[C@H](O)c3cccc(Cl)c3)cc2O1 [Example 98, 5-{(2R)-2-[(2R)-2-(3-Chloro-phenyl)-2-hydroxy-ethylamino]-propyl}-benzo[1,3]dioxole-2,2-dicarboxylic acid diallyl ester] |
| 2% | CC(Cc1ccc2c(c1)OC(C(=O)OCCC1CCCCC1)(C(=O)OCCC1CCCCC1)O2)NCC(O)c1cccc(Cl)c1 (stereo not shown) [Example 36, 5-{2-[2-(3-Chloro-phenyl)-2-hydroxy-ethylamino]-propyl}-benzo[1,3]dioxole-2,2-dicarboxylic acid bis-(2-cyclohexyl-ethyl) ester] |
| 13% | CC(Cc1ccc2c(c1)OC(C(=O)O)(C(=O)OCCc1ccsc1)O2)NCC(O)c1cccc(Cl)c1 (stereo not shown) [Example 72, 5-{2-[2-(3-Chloro-phenyl)-2-hydroxy-ethylamino]-propyl}-benzo[1,3]dioxole-2,2-dicarboxylic acid 2-(3-Thienyl)ethyl ester] |

| SMILES | activation at 0.01 µM |
| --- | --- |
| CC(C)COCCOC(=O)C1(C(=O)OCCOCC(C)C)Oc2ccc(CC(C)NCC(O)c3cccc(Cl)c3)cc2O1 (stereo not shown) [Example 8, 5-{2-[2-(3-Chloro-phenyl)-2-hydroxy-ethylamino]-propyl}-benzo[1,3]dioxole-2,2-dicarboxylic acid bis-(2-isobutoxy-ethyl) ester] | 1% |

Same assay, conditions: CHO, 10 min, read-out: β2: % of isoproterenol activity (increase in cAMP)

| SMILES | activation at 0.01 µM |
| --- | --- |
| CC(Cc1ccc2c(c1)OC(C(=O)OC[Si](C)(C)C)(C(=O)OC[Si](C)(C)C)O2)NCC(O)c1cccc(Cl)c1 (stereo not shown) [Example 30, 5-{2-[2-(3-Chloro-phenyl)-2-hydroxy-ethylamino]-propyl}-benzo[1,3]dioxole-2,2-dicarboxylic acid bis-trimethylsilanylmethyl ester] | 0% |
| CC(Cc1ccc2c(c1)OC(C(=O)OCc1ccccc1)(C(=O)OCc1ccccc1)O2)NCC(O)c1cccc(Cl)c1 (stereo not shown) [Example 9, 5-{2-[2-(3-Chloro-phenyl)-2-hydroxy-ethylamino]-propyl}-benzo[1,3]dioxole-2,2-dicarboxylic acid bis-(benzyl) ester hydrochloride salt] | 16% |
| CC(Cc1ccc2c(c1)OC(C(=O)OC1CCCCC1)(C(=O)OC1CCCCC1)O2)NCC(O)c1cccc(Cl)c1 (stereo not shown) [Example 10, 5-{2-[2-(3-Chloro-phenyl)-2-hydroxy-ethylamino]-propyl}-benzo[1,3]dioxole-2,2-dicarboxylic acid bis-(cyclohexyl) ester hydrochloride salt] | 0% |
| CC(Cc1ccc2c(c1)OC(C(=O)OCCC[Si](C)(C)C)(C(=O)OCCC[Si](C)(C)C)O2)NCC(O)c1cccc(Cl)c1 (stereo not shown) [Example 32, 5-{2-[2-(3-Chloro-phenyl)-2-hydroxy-ethylamino]-propyl}-benzo[1,3]dioxole-2,2-dicarboxylic acid bis-(3-trimethylsilanyl-propyl) ester] | 2% |
| COCCOC(=O)C1(C(=O)OCCOC)Oc2ccc(CC(C)NCC(O)c3cccc(Cl)c3)cc2O1 (stereo not shown) [Example 1, 5-{2-[2-(3-Chloro-phenyl)-2-hydroxy-ethylamino]-propyl}-benzo[1,3]dioxole-2,2-dicarboxylic acid bis-(2-methoxy-ethyl) ester hydrochloride salt] | 4% |
| CC(Cc1ccc2c(c1)OC(C(N)=O)(C(N)=O)O2)NCC(O)c1cccc(Cl)c1 (stereo not shown) [Example 60, 5-{2-[2-(3-Chloro-phenyl)-2-hydroxy-ethylamino]-propyl}benzo[1,3]dioxole-2,2-dicarboxylic acid bis-amide] | 3% |
